Measurements from ChEMBL document CHEMBL3751662, “Novel quinoline derivatives as potent in vitro -glucosidase inhibitors: in silico studies and SAR predictions” (Medchemcomm, 2015).
pIC50: −log10 of the molar value.

Assays:
[1] = Cytotoxicity against mouse 3T3L1 cells assessed as cell viability at 1 to 20 ug/ml after 48 hrs by MTT assay; type: cell-based; conditions: 3t3-l1, 48 h
[2] = Cytotoxicity against Wistar rat CC1 cells assessed as cell viability at 1 to 20 ug/ml after 48 hrs by MTT assay; type: cell-based; conditions: cc-1, 48 h
[3] = target: alpha-glucosidase (Saccharomyces cerevisiae); assay: Inhibition of alpha-glucosidase (Saccharomyces cerevisiae) using p-nitrophenyl glucopyranoside as substrate preincubated for 10 mins followed by substrate addition measured after 30 mins by plate reader analysis
[4] = tested on: alpha-glucosidase (Saccharomyces cerevisiae); assay: Potency index, ratio of acarbose IC50 to compound IC50 for alpha glucosidase (Saccharomyces cerevisiae)

SMILES | pIC50 [3] | inhibition [3] | Ratio IC50 [4] | Activity [1] | Activity [2]
O=C(N/N=C/c1cccc(Cl)c1)c1ccc(-c2nnc(-c3ccc4ncccc4c3)o2)cc1 | 4.52 |  |  | Non-toxic | Non-toxic
O=C(N/N=C/c1cc(O)cc(O)c1)c1ccc(-c2nnc(-c3ccc4ncccc4c3)o2)cc1 | 4.43 |  |  | Non-toxic | Non-toxic
O=C(N/N=C/c1ccc([N+](=O)[O-])cc1)c1ccc(-c2nnc(-c3ccc4ncccc4c3)o2)cc1 | 4.20 |  |  | Non-toxic | Non-toxic
O=C(N/N=C/c1cccnc1)c1ccc(-c2nnc(-c3ccc4ncccc4c3)o2)cc1 |  | < 50% |  | Non-toxic | Non-toxic
Cc1cccc(/C=N/NC(=O)c2ccc(-c3nnc(-c4ccc5ncccc5c4)o3)cc2)c1 | 4.00 |  |  | Non-toxic | Non-toxic
O=C(N/N=C/c1ccc(O)cc1)c1ccc(-c2nnc(-c3ccc4ncccc4c3)o2)cc1 | 4.57 |  |  | Non-toxic | Non-toxic
O=C(N/N=C/c1c(O)cc(O)cc1O)c1ccc(-c2nnc(-c3ccc4ncccc4c3)o2)cc1 | 5.09 |  |  | Non-toxic | Non-toxic
O=C(N/N=C/c1ccccc1Cl)c1ccc(-c2nnc(-c3ccc4ncccc4c3)o2)cc1 | 5.38 |  |  | Non-toxic | Non-toxic
O=C(N/N=C/c1ccncc1)c1ccc(-c2nnc(-c3ccc4ncccc4c3)o2)cc1 |  | < 50% |  | Non-toxic | Non-toxic
O=C(N/N=C/c1ccc(Cl)cc1)c1ccc(-c2nnc(-c3ccc4ncccc4c3)o2)cc1 | 5.41 |  |  | Non-toxic | Non-toxic
O=C(N/N=C/c1ccc(O)c(O)c1)c1ccc(-c2nnc(-c3ccc4ncccc4c3)o2)cc1 | 5.59 |  | > 14 | Non-toxic | Non-toxic
Cc1ccc(/C=N/NC(=O)c2ccc(-c3nnc(-c4ccc5ncccc5c4)o3)cc2)cc1 | 3.99 |  |  | Non-toxic | Non-toxic
O=C(N/N=C/c1cc(O)c(O)cc1O)c1ccc(-c2nnc(-c3ccc4ncccc4c3)o2)cc1 | 5.59 |  | > 14 | Non-toxic | Non-toxic
O=C(N/N=C/c1cccc([N+](=O)[O-])c1)c1ccc(-c2nnc(-c3ccc4ncccc4c3)o2)cc1 | 4.44 |  |  | Non-toxic | Non-toxic
Cc1ccccc1/C=N/NC(=O)c1ccc(-c2nnc(-c3ccc4ncccc4c3)o2)cc1 | 4.10 |  |  | Non-toxic | Non-toxic
O=C(N/N=C/c1ccccc1[N+](=O)[O-])c1ccc(-c2nnc(-c3ccc4ncccc4c3)o2)cc1 | 4.82 |  |  | Non-toxic | Non-toxic
O=C(N/N=C/c1ccccn1)c1ccc(-c2nnc(-c3ccc4ncccc4c3)o2)cc1 | 4.39 |  |  | Non-toxic | Non-toxic

Second part, led by results:

pIC50 [3] | inhibition [3] | Ratio IC50 [4] | SMILES | Activity [1] | Activity [2]
5.17 |  |  | O=C(N/N=C/c1cccc(O)c1O)c1ccc(-c2nnc(-c3ccc4ncccc4c3)o2)cc1 | Non-toxic | Non-toxic
5.07 |  |  | O=C(N/N=C/c1ccc(O)cc1O)c1ccc(-c2nnc(-c3ccc4ncccc4c3)o2)cc1 | Non-toxic | Non-toxic
5.21 |  |  | COc1ccc(O)c(/C=N/NC(=O)c2ccc(-c3nnc(-c4ccc5ncccc5c4)o3)cc2)c1 | Non-toxic | Non-toxic
4.67 |  |  | COc1ccc(/C=N/NC(=O)c2ccc(-c3nnc(-c4ccc5ncccc5c4)o3)cc2)cc1O | Non-toxic | Non-toxic
4.41 |  |  | O=C(N/N=C/c1cccc(O)c1)c1ccc(-c2nnc(-c3ccc4ncccc4c3)o2)cc1 | Non-toxic | Non-toxic
5.04 |  |  | COc1ccc(/C=N/NC(=O)c2ccc(-c3nnc(-c4ccc5ncccc5c4)o3)cc2)c(O)c1 | Non-toxic | Non-toxic
5.07 |  |  | O=C(N/N=C/c1cc(O)ccc1O)c1ccc(-c2nnc(-c3ccc4ncccc4c3)o2)cc1 | Non-toxic | Non-toxic
5.54 |  | > 14 | O=C(N/N=C/c1ccccc1O)c1ccc(-c2nnc(-c3ccc4ncccc4c3)o2)cc1 | Non-toxic | Non-toxic
